In patent US5612174A, “Photographic yellow dye-forming couplers and silver halide color photographic materials containing the same” (Fuji Photo Film Co., Ltd., priority 1994, dated 1997):

Experiments:
[1] = Solubility of yellow couplers in 100 ml of ethyl acetate at 25° C.; type: physicochemical; details: for Solubility: 25° C.; for solubility in ethyl acetate relative to RY-1 and RY-2: in words
Experimental: Test for Solubility of Yellow Couplers in Organic Solvents:
A test was conducted in order to determine what grams of the yellow coupler shown in Table A below are dissolved in 100 ml of ethyl acetate at 25° C. The yellow coupler was gradually added to 100 ml of ethyl acetate by 0.1 g at a time and stirred for 5 minutes, whereupon the amount not dissolved was referred to as a saturation point. The results are shown in Table A. As comparative couplers, used were the following RY-1 and RY-2. [drawing 15]
Solubility of Couplers in 100 ml of
Ethyl Acetate (at 25° C.)

[2] = Solubility of yellow couplers in high boiling point organic solvents Solv-2, Solv-3 and Solv-9; type: physicochemical; details: in words
Experimental: The same test as above was conducted to determine the solubility of the yellow couplers in known high boiling point organic solvents Solv-2, Solv-3 and Solv-9 mentioned below.

Row | Structure (SMILES) | Solubility [1] [g/100 ml] | solubility in ethyl acetate relative to RY-1 and RY-2 [1] | solubility in known high boiling point organic solvents relative to RY-1 and RY-2 [2]
1 | CCC=CCC=CCC=CCCCCCCCC(=O)Nc1ccc(Cl)c(NC(=O)C(C(=O)C(C)(C)C)N2C(=O)NC(C)(C)C2=O)c1 (centres unmarked) [Y-3] | 21.4 | much larger solubility in ethyl acetate than the known yellow couplers of RY-1 and RY-2 | much larger solubility in such solvents than the known yellow couplers of RY-1 and RY-2
2 | CCCCCCCCC=CCCCCCCCC(=O)Nc1ccc(Cl)c(NC(=O)C(C(=O)C(C)(C)C)N2C(=O)NC(C)(C)C2=O)c1 (centres unmarked) [Y-1] | 21.0 | much larger solubility in ethyl acetate than the known yellow couplers of RY-1 and RY-2 | much larger solubility in such solvents than the known yellow couplers of RY-1 and RY-2
3 | CCCCCC=CCC=CCCCCCCCC(=O)Nc1ccc(Cl)c(NC(=O)C(C(=O)C(C)(C)C)N2C(=O)NC(C)(C)C2=O)c1 (centres unmarked) [Y-2] | 21.2 | much larger solubility in ethyl acetate than the known yellow couplers of RY-1 and RY-2 | much larger solubility in such solvents than the known yellow couplers of RY-1 and RY-2
4 | CCCCCCCCC=CCCCCCCCC(=O)Nc1ccc(OC)c(NC(=O)C(C(=O)C(C)(C)C)N2C(=O)NC(C)(C)C2=O)c1 (centres unmarked) [Y-13] | 20.8 | much larger solubility in ethyl acetate than the known yellow couplers of RY-1 and RY-2 | much larger solubility in such solvents than the known yellow couplers of RY-1 and RY-2

Further lines, with some results ahead:

Row | Solubility [1] [g/100 ml] | Structure (SMILES) | solubility in ethyl acetate relative to RY-1 and RY-2 [1] | solubility in known high boiling point organic solvents relative to RY-1 and RY-2 [2]
5 | 15.8 | CCC(Oc1ccc(C(C)(C)CC)cc1C(C)(C)CC)C(=O)Nc1ccc(Cl)c(NC(=O)C(C(=O)C(C)(C)C)N2C(=O)NC(C)(C)C2=O)c1 (centres unmarked) [RY-1, reference compound] |  | 
6 | 8.5 | CCCCCCCCCCCCCCCCCC(=O)Nc1ccc(Cl)c(NC(=O)C(C(=O)C(C)(C)C)N2C(=O)NC(C)(C)C2=O)c1 (centres unmarked) [RY-2, reference compound] |  | 
